Reference: US4935505A, “Novel azolo [1,3] diazepine-5-ol compounds and their uses” (priority 1988, dated 1990)
Like-named read-outs stand apart in the source and are kept apart here.

Experiments:
adenosine deaminase = adenosine deaminase (Homo sapiens, UniProt P00813); test: Inhibition of adenosine deaminase (ADA), adenosine as substrate, purified enzyme; format: biochemical
Description: The mixture of the R and S isomers of the 4,5,6-trihydro-1-(β-D-ribofuranosyl) pyrazolo [5,4-d]

[1] = system: human erythrocytic adenosine deaminase; details: cited from earlier work
[2] = clinical trials; cited from earlier work
[3] = Inhibition of Adenosine Deaminase by Target Compounds, adenosine as substrate, purified enzyme, read-out: Ki

Sequence of adenosine deaminase (P00813 whole entry): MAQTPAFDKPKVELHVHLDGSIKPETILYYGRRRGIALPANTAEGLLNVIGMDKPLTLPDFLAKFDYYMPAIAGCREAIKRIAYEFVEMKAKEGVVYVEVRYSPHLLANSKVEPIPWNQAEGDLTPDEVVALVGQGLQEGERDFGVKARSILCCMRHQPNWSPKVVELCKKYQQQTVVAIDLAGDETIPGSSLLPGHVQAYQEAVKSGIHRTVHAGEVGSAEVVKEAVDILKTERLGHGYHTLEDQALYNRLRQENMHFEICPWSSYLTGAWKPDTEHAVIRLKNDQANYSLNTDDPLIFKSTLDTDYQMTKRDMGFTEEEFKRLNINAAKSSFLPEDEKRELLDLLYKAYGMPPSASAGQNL

OC[C@H]1O[C@@H](n2ncc3c2N=CNCC3O)[C@H](O)[C@@H]1O (mixture of isomers) [(3 + 26), 4,5,6-Tihydro-1-(β-D-ribofuranosyl)pyrazolo [5,4-d]-[1,3] diazepin-4(R,S)-ol]
Ki (adenosine deaminase; [3]): 2000 nM

OC[C@H]1O[C@@H](n2cnc3c2N=CNC[C@H]3O)[C@H](O)[C@@H]1O [2, coformycin, reference compound]
tight binding inhibition [1]: exceedingly tight binding inhibitors | Ki (adenosine deaminase): 0.12 nM

OC[C@H]1O[C@@H](n2nnc3c2N=CNC[C@H]3O)[C@H](O)[C@@H]1O [4 (R), 6,7,8-Trihydro-3-β-D-ribofuranosyl-v-triazole [4,5-d] [1,3] diazepin-8(R,S)-ol]
Ki (adenosine deaminase; Preliminary estimates based on conventional kinetic analysis, adenosine as substrate, purified enzyme, read-out: Ki): 2 nM | type of inhibition of ADA (adenosine deaminase; adenosine as substrate, purified enzyme, listed as Compound 4): very tight-bindinginhibitor | type of inhibition of ADA (adenosine deaminase; adenosine as substrate, purified enzyme, listed as compound 4): potent tight-binding inhibitor

OC[C@H]1O[C@@H](n2nnc3c2N=CNC[C@@H]3O)[C@H](O)[C@@H]1O [37 (S), 6,7,8-Trihydro-3-β-D-ribofuranosyl-v-triazole [4,5-d] [1,3] diazepin-8(R,S)-ol]
Ki (adenosine deaminase; [3]): 85000 nM

OC[C@H]1O[C@@H](n2cnc3c2NC=NC[C@H]3O)C[C@@H]1O [pentostatin, 8(R)-3-(2-deoxy-β-D-erythro-pentofuranosyl)-3,6,7,8-tetrahydroimidazo[4,6-d][1,3]diazepin-8-ol]
tight binding inhibition [1]: exceedingly tight binding inhibitors | acute renal toxicity [2]: acute renal toxicity
